The record followed here is paper PMC6816037 (Computational and Structural Biotechnology Journal, 2019).

Each structure is given as a SMILES string.

This test addresses XIAP-BIR3 (Homo sapiens, UniProt P98170). The test can be described thus: surface plasmon resonance. In kind it is binding. (SPR reads the build-up and loss of mass on a sensor chip optically.)

Sequence of XIAP-BIR3 (P98170 241-356 limits assumed): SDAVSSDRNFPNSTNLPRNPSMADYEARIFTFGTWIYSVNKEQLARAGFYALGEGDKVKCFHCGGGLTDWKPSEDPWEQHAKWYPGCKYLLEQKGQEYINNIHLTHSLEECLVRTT

On to `C[C@@H]1O[C@@H](O[C@H]2[C@H](Oc3cc(O)c4c(c3)O[C@H](c3ccc(O)c(O)c3)CC4=O)O[C@H](CO)[C@@H](O)[C@@H]2O)[C@H](O)[C@H](O)[C@H]1O` [compound 10, neoeriocitrin], for which the affinity, expressed as Kd, was 13.3 µM.
